Results reported in patent publication US20250325717A1, “ANTI-NUCLEOPHOSMIN 1 ANTIBODY AND ANTIBODY CONJUGATE COMBINATION THERAPIES” (The Children's Medical Center Corporation, priority 2022, published 2025).

Columns and labels:
[1] = tested on: NPM1 on the surface of OCI-AML3 cells; assay: Effect of chemotherapeutics on anti-NPM1 antibody binding to OCI-AML3 cell surface; assay type: cell-based, human
OCI-AML3 cells = assay: Low dose chemotherapeutics: induction of cell surface NPM1 on OCI-AML3 cells; assay type: cell-based, human; conditions: daunorubicin 10 nanomolar (nm), venetoclax 40 nm; for NPM1 on the cell surface: 48 hrs
Description: To determine whether low doses of chemotherapeutic agents, daunorubicin and venetoclax, induce cell surface NPM1, OCI-AML3 cells were exposed to either control or a low dose of a chemotherapeutic treatment. OCI-AML3 cells are resistant to BLC2i. Daunorubicin was administered at 10 nanomolar (nm) and venetoclax was administered at 40 nm. Administration of daunorubicin increased NPM1 on the cell surface at 48 hrs and maintained higher expression for at least 9 days. Administration of venetoclax and separately 5-Aza increased NPM1 at 48 hrs and maintained higher expression for at least 7 days (FIG. 32).

[2] = tested on: normal myeloid progenitor line HOXB8; assay: Low dose chemotherapeutics: cell surface NPM1 on non-transformed HOXB8 cells; assay type: cell-based; conditions: daunorubicin 10 nM, venetoclax 40 nM, 48 and 72 hours
Description: (§1) The ability of low doses of chemotherapeutic agents, daunorubicin and venetoclax, to induce cell surface NPM1 on non-transformed cells was tested. Normal hematopoietic precursor cell line HPC7 and normal myeloid progenitor line HOXB8 were exposed to either control or a low dose of a chemotherapeutic treatment. Doses of daunorubicin and venetoclax were administered at 10 nanomolar (nM) and 40 nM, respectively. The results of the antibody binding measured by flow cytometry show no change in the low dose chemotherapeutic compared to controls (FIG. 33).

[3] = tested on: Normal hematopoietic precursor cell line HPC7; assay: Low dose chemotherapeutics: cell surface NPM1 on non-transformed HPC7 cells; assay type: cell-based; conditions: daunorubicin 10 nM, venetoclax 40 nM, 48 and 72 hours
Description: as §1

[4] = biological target: T1, human nucleophosmin 1 (NPM1) (human, UniProt P06748 1-294); assay: FACS, human AML PDX cells (PDX-1, PDX-3, PDX-4)
T1 construct: In the blots it is NPM1 from lysates or membrane fractions, not on cells; also called WT NPM1; wild-type NPM1
T1 sequence (P06748 whole entry): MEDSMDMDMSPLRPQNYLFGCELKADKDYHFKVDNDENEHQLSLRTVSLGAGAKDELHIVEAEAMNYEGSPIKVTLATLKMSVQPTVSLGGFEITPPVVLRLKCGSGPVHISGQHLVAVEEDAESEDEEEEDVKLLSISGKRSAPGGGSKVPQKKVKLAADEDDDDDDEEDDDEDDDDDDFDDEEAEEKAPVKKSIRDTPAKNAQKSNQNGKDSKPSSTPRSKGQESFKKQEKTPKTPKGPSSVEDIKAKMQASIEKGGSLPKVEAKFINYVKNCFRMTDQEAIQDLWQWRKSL

murine NPM1 = biological target: T2, murine NPM1 (murine, UniProt Q61937 1-292); assay: FACS, primary murine MLL-r AML cells
T2 construct: also called NPM1 on primary murine MLL-rearranged (MLL-r) AML cells; NPM1 on MLL-AF9/Flt3-ITD AML cells
T2 sequence (Q61937 whole entry): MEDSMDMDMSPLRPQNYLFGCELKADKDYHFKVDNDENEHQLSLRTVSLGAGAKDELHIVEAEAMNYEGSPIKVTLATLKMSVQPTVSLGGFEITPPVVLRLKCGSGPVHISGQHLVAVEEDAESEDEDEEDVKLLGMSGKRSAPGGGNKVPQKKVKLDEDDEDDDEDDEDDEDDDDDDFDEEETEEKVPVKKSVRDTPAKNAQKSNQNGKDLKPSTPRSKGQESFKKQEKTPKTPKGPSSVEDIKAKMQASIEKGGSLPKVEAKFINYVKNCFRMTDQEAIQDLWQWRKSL

[5] = tested on: NPM1 on human patient derived xenograft (PDX) cells; assay: FACS binding to human PDX cells transplanted into a mouse model; assay type: cell-based
Description: (§2) Given that a variety of murine and human leukemia cell lines express cell surface WT and/or mutant NPM1, it was subsequently assessed whether the isolated antibodies could also bind to the surface of these cells. […] These antibodies could further be used in other applications, including, for example, diagnostic agents by instead conjugating the antibodies with an imaging agent, which can in turn be used to locate and measure the relative abundance of cancer cells in a patient.

[6] = tested on: host murine bone marrow cells; assay: FACS binding to host murine bone marrow cells of PDX mice; assay type: cell-based; conditions: host bone marrow of PDX mouse model
Description: as §2

[7] = biological target: T3, surface localized NPM1 on primary murine MLL-rearranged AML cells (Mus musculus, UniProt Q61937); assay: FACS binding to primary murine MLL-rearranged AML cells; assay type: cell-based
T3 construct: endogenous in cells; host or cells: primary murine MLL-rearranged AML cells
T3 sequence (Q61937 whole entry): as above
Description: as §2

[8] = tested on: surface localized NPM1 on primary murine NPM1c AML cells; assay: FACS binding to primary murine NPM1c AML cells; assay type: cell-based
Description: as §2

## Nc1ncn([C@@H]2O[C@H](CO)[C@@H](O)[C@H]2O)c(=O)n1 [5-azacytidine]
[1]; 40 nM 5-azacytidine
  binding of anti-NPM1 antibodies to NPM1 on the surface of OCI-AML3 cells: The same effect was observed
[1]; after only 24 hours of treatment with 5-Aza
  binding between the isolated anti-mutant NPM1 and OCI-AML3 cells: substantially enhanced
OCI-AML3 cells
  NPM1 on the cell surface: increased

## COc1cccc2c1C(=O)c1c(O)c3c(c(O)c1C2=O)C[C@@](O)(C(C)=O)C[C@@H]3O[C@H]1C[C@H](N)[C@H](O)[C@H](C)O1 [daunorubicin]
[2]
  antibody binding (cell surface NPM1) compared to controls: no change
[1]; 10 nM daunorubicin or 40 nM venetoclax
  binding between the isolated anti-WT NPM1 and anti-mutant NPM1 antibody and NPM1 on the surface of OCI-AML3 cells: enhanced binding
[1]; 8 days post-treatment, 10 nM daunorubicin or 40 nM venetoclax
  binding of anti-NPM1 antibody (Merck/Sigma anti-B23 #B0556) to cells: substantially enhanced
[1]; after 48 hours of treatment, 10 nM daunorubicin or 40 nM venetoclax
  binding of anti-NPM1 antibody (Merck/Sigma anti-B23 #B0556) to cells: enhanced
OCI-AML3 cells
  NPM1 on the cell surface: increased
  time for which higher NPM1 expression was maintained: at least 9 days
[3]
  antibody binding (cell surface NPM1) compared to controls: no change

B1: Ab1 anti-NPM1 antibody (antibody, mouse IgG2a, kappa, V domains shown)
VH: EVQLQQSVAELVRPGASVKLSCTASGFNIKNIFVHWVKQRPEQGLEWIGKIDPANDNTKFAPNFQGKAAISADTSSNTAYLQLSSLTSEDTAIYYCASDSSGYDAVDYWGQGTSVTVSS
VL: DIQMTQSPASLSASVGETVTITCRASESVYTYLAWYQQKQGKSPQLLVYNAKTLTEGVPSRFSGSGSGTQFSLRINSLQPEDFGSYYCQHHYGTPYTFGSGTKLEIKR
notes: also called isolated anti-WT NPM1 antibody
[4]
  binding result: binds
Murine NPM1
  binding result: binds

B2: Ab1 (antibody)
heavy: EVQLQQSVAELVRPGASVKLSCTASGFNIKNIFVHWVKQRPEQGLEWIGKIDPANDNTKFAPNFQGKAAISADTSSNTAYLQLSSLTSEDTAIYYCASDSSGYDAVDYWGQGTSVTVSSAKTTAPSVYPLAPVCGDTTGSSVTLGCLVKGYFPEPVTLTWNSGSLSSGVHTFPAVLQSDLYTLSSSVTVTSSTWPSQSITCNVAHPASSTKVDKKIEPRGPTIKPCPPCKCPAPNLLGGPSVFIFPPKIKDVLMISLSPIVTCVVVDVSEDDPDVQISWFVNNVEVHTAQTQTHREDYNSTLRVVSALPIQHQDWMSGKEFKCKVNNKDLPAPIERTISKPKGSVRAPQVYVLPPPEEEMTKKQVTLTCMVTDFMPEDIYVEWTNNGKTELNYKNTEPVLDSDGSYFMYSKLRVEKKNWVERNSYSCSVVHEGLHNHHTTKSFSRTPGK
light: DIQMTQSPASLSASVGETVTITCRASESVYTYLAWYQQKQGKSPQLLVYNAKTLTEGVPSRFSGSGSGTQFSLRINSLQPEDFGSYYCQHHYGTPYTFGSGTKLEIKRADAAPTVSIFPPSSEQLTSGGASVVCFLNNFYPKDINVKWKIDGSERQNGVLNSWTDQDSKDSTYSMSSTLTLTKDEYERHNSYTCEATHKTSTSPIVKSFNRNEC
[5]
  binding to NPM1 on PDX cells: bound
[6]
  binding to host murine bone marrow cells: without binding
[7]
  binding to surface localized NPM1: capable of binding
[8]
  binding to surface localized NPM1: capable of binding
